Measurements published in ChEMBL document CHEMBL5537170, “Design, Synthesis, and Anti-Osteoporotic Characterization of Arginine N-Glycosylated Teriparatide Analogs via the Silver-catalyzed Solid-Phase Glycosylation Strategy” (J Med Chem, 2024).

How the values were obtained:
[1] = Cytotoxicity against C57BL/6 mouse Pre-Osteoblast cells assessed as cell death upto 5 uM incubated for 4 days by CCK-8 assay; assay type: toxicity, cell-based; settings: 96 h, time 4 day
[2] = Stability in human serum assessed as compound degradation at 1 mg/ml measured after 12 hrs by HPLC analysis; assay type: ADME, cell-free; settings: read-out: Drug degradation
[3] = Induction of osteoblast differentiation in C57BL/6 mouse Pre-Osteoblast cells assessed as fold increase in ephrinB2 protein expression at 50 nM measured after 72 hrs by Western blot analysis relative to control; assay type: functional
[4] = Induction of osteoblast differentiation in C57BL/6 mouse Pre-Osteoblast cells assessed as fold increase in ephrinB2 protein expression at 100 nM measured after 72 hrs by Western blot analysis relative to control; assay type: functional
[5] = Induction of osteoblast differentiation in C57BL/6 mouse Pre-Osteoblast cells assessed as fold increase in ephrinB2 protein expression at 200 nM measured after 72 hrs by Western blot analysis relative to control; assay type: functional

metabolised at 12 h, 1 mg/ml [2]: > 50%
SMILES: CC[C@H](C)[C@H](NC(=O)[C@H](CCC(=O)O)NC(=O)[C@H](CO)NC(=O)[C@@H](NC(=O)[C@H](CO)NC(C)=O)C(C)C)C(=O)N[C@@H](CCC(N)=O)C(=O)N[C@@H](CC(C)C)C(=O)N[C@@H](CCSC)C(=O)N[C@@H](Cc1cnc[nH]1)C(=O)N[C@@H](CC(N)=O)C(=O)N[C@@H](CC(C)C)C(=O)NCC(=O)N[C@@H](CCCCN)C(=O)N[C@@H](Cc1cnc[nH]1)C(=O)N[C@@H](CC(C)C)C(=O)N[C@@H](CC(N)=O)C(=O)N[C@@H](CO)C(=O)N[C@@H](CCSC)C(=O)N[C@@H](CCC(=O)O)C(=O)N[C@@H](CCCNC(=N)N)C(=O)N[C@H](C(=O)N[C@@H](CCC(=O)O)C(=O)N[C@@H](Cc1c[nH]c2ccccc12)C(=O)N[C@@H](CC(C)C)C(=O)N[C@@H](CCCNC(=N)N)C(=O)N[C@@H](CCCCN)C(=O)N[C@@H](CCCCN)C(=O)N[C@@H](CC(C)C)C(=O)N[C@@H](CCC(N)=O)C(=O)N[C@@H](CC(=O)O)C(=O)N[C@H](C(=O)N[C@@H](Cc1cnc[nH]1)C(=O)N[C@@H](CC(N)=O)C(=O)N[C@@H](Cc1ccccc1)C(N)=O)C(C)C)C(C)C
Activity [1]: Non-Toxic
fold change (FC) [3]: 1.04
fold change (FC) [4]: 1.05
fold change (FC) [5]: 1.23
